The test system of this experiment is A549. Description: Cytotoxicity against human A549 cells after 2 days by AlamarBlue assay. Particulars: A549, 48 h.

The results in this text go back to ChEMBL document CHEMBL2417371, “Herbimycins D-F, ansamycin analogues from Streptomyces sp. RM-7-15” (J Nat Prod, 2013).

A word on the IC50: it is the concentration at which inhibition is half-maximal. Read a high IC50 as weaker potency in that assay.

Compound `CO[C@H]1[C@@H](OC)C[C@H](C)[C@@H](OC)C2=CC(=O)C=C(NC(=O)/C(C)=C/C=C/[C@H](OC)[C@@H](OC(N)=O)/C(C)=C/[C@@H]1C)C2=O` [HERBIMYCIN] showed an IC50 of 150 nM.
The result for `COC1=C2C[C@@H](C)C[C@H](OC)[C@H](O)[C@@H](C)/C=C(\C)[C@H](OC(N)=O)[C@@H](OC)/C=C\C=C(/C)C(=O)NC(=CC1=O)C2=O` [GELDANAMYCIN] reads 150 nM.
